Results on 2 molecules are retold here after US11464749B2, “Bismuth-thiol compositions and methods of use” (Microbion Corporation, priority 2018, dated 2022).

Broadly, the MIC is the lowest concentration found to suppress growth.

Experiment [1] relates to vancomycin-intermediate Staphylococcus aureus (VISA). Put plainly: Broth microdilution MIC (Example 12). As to conditions: Staphylococcus aureus, NRS13 / VISA, read-out: MIC values. Background: Broth dilution looks for growth in wells or tubes with falling amounts of substance.
In experiment [2] the test system is Clostridium difficile. The conditions noted are these: C. difficile MMX 4381 (ATCC 700057); cited from earlier work.
The test system of experiment [3] is S. pneumoniae. Put plainly: Broth microdilution MIC (Example 11). As to conditions: Streptococcus pneumoniae.
Experiment [4] deals with E. faecalis. Put plainly: Broth microdilution MIC (Example 11). The conditions noted are these: Enterococcus faecalis, VRE, VRE Lev^R Cip^R Ery^R.
Experiment [5] has as its system Staphylococcus aureus (MRSA). Description: Broth microdilution MIC (Example 11).
Experiment [6] relates to Bacteroides fragilis. As to conditions: B. fragilis MMX 123 (ATCC 25285); cited from earlier work.
The subject of experiment [7] is S. agalactiae. Put plainly: Broth microdilution MIC (Example 11). As to conditions: Streptococcus agalactiae.
Experiment [8] concerns S. pyogenes. Description: Broth microdilution MIC (Example 11). The conditions noted are these: Streptococcus pyogenes.
The subject of experiment [9] is S. pneumoniae. The conditions noted are these: S. pneumoniae MMX 6837 (ATCC 49619); cited from earlier work.
Where [10] appears, read: ATCC49619, S. pneumoniae MMX 6837 (ATCC 49619), QC.
The mark [11] stands for this setting: S. pneumoniae MMX 880, Lev^R SXT^R CC^R Ery^R Pen^R.
The mark [12] stands for this setting: S. pneumoniae MMX 937, Mem^R SXT^R CC^R Ery^R Pen^R.
[13] abbreviates: S. pneumoniae MMX 3959, CC^R Ery^R.
[14] abbreviates: S. pneumoniae MMX 5440, Mem^R SXT^R CC^R Ery^R Pen^R.
Setting [15] is: S. pneumoniae MMX 5445, Mem^R SXT^R CC^R Ery^R Pen^R.
Where [16] appears, read: S. pneumoniae MMX 8133, Mem^R SXT^R CC^R Ery^R Pen^R.
The mark [17] stands for this setting: S. agalactiae MMX 3741, ERY^R CC^R.
The mark [18] stands for this setting: S. agalactiae MMX 3743, ERY^R CC^R.
Setting [19] is: S. agalactiae MMX 4077, ERY^R CC^R.
Where [20] appears, read: S. agalactiae MMX 4079, ERY^R CC^R Pen^R MEM^R.
The mark [21] stands for this setting: S. agalactiae MMX 4086, ERY^R CC^R.
Where [22] appears, read: S. pyogenes MMX 3820, ERY^R CLI^R.
The mark [23] stands for this setting: S. pyogenes MMX 3929, ERY^R CC^R.
[24] abbreviates: S. pyogenes MMX 5091, ERY^R CC^R.

Values after ≈ are worked out from the molar mass of the structure shown.

`CCC[C@@H]1C[C@@H](C(=O)N[C@@H]([C@H]2O[C@H](SC)[C@H](O)[C@@H](O)[C@H]2O)[C@H](C)Cl)N(C)C1` [clindamycin]: the MIC is at least 4 µg/mL in experiment [1]; 0.06 µg/mL (≈ 0.141 µM) in [3] (setting [10]); over 8 µg/mL in experiment [3] (setting [11]); over 8 µg/mL in experiment [3] (setting [12]); over 8 µg/mL in experiment [3] (setting [13]); over 8 µg/mL in experiment [3] (setting [14]). Also, the MIC in experiment [3] (setting [15]) is over 8 µg/mL; in [3] (setting [16]), over 8 µg/mL; in [4] (E. faecalis MMX 8960), over 32 µg/mL; in [4] (E. faecalis MMX 8961), over 32 µg/mL; in [4] (E. faecalis MMX 8962) it was over 32 µg/mL; in experiment [5] (ATCC29213|MRSA|MSSA, S. aureus MMX 101 (ATCC 29213), QC, MSSA), 0.12 µg/mL (≈ 0.282 µM). In addition, the MIC was over 32 µg/mL in experiment [5] (MRSA, S. aureus MMX 5373, MRSA Lev^R Cip^R CC^R Ery^R Ox^R); over 32 µg/mL in [5] (MRSA, S. aureus MMX 6311, MRSA Lev^R Cip^R CC^R Ery^R Ox^R); 0.12 µg/mL (≈ 0.282 µM) in experiment [5] (MRSA, S. aureus MMX 9203, MRSA Lev^R Cip^R Ery^R Ox^R); 0.12 µg/mL (≈ 0.282 µM) in experiment [5] (MRSA, S. aureus MMX 9204, MRSA Lev^R Cip^R Ery^R Ox^R); over 32 µg/mL in experiment [5] (MRSA, S. aureus MMX 9205, MRSA Lev^R Cip^R CC^R Ery^R Ox^R); over 8 µg/mL in [7] (setting [17]). Also, the MIC in [7] (setting [18]) was over 8 µg/mL; in experiment [7] (setting [19]), over 8 µg/mL; in experiment [7] (setting [20]), over 8 µg/mL; in experiment [7] (setting [21]), over 8 µg/mL; in experiment [8] (S. pyogenes MMX 3068, Ery^R), 0.06 µg/mL (≈ 0.141 µM); in experiment [8] (setting [22]), 1 µg/mL (≈ 2.35 µM). The minimum inhibitory concentration (MIC) is 0.12 µg/mL (≈ 0.282 µM) in [8] (S. pyogenes MMX 3919, ERY^R); over 8 µg/mL in experiment [8] (setting [23]); over 8 µg/mL in experiment [8] (setting [24]). The “MIC, CLSI QC range” value is given as “(2-8) pg/mL” in [2] and “(0.5-2)^1 ^ pg/mL” in experiment [6].

On to `CC1(C)S[C@@H]2[C@H](NC(=O)Cc3ccccc3)C(=O)N2[C@H]1C(=O)O` [Penicillin], for which the MIC in experiment [3] (setting [10]) was determined as 0.25 µg/mL (≈ 0.748 µM); in [3] (setting [11]) it was 2 µg/mL (≈ 5.98 µM); in experiment [3] (setting [12]), 4 µg/mL (≈ 12 µM); in [3] (setting [13]), 0.12 µg/mL (≈ 0.359 µM); in experiment [3] (setting [14]) it was 4 µg/mL (≈ 12 µM); in [3] (setting [15]), 4 µg/mL (≈ 12 µM). Also, the MIC amounted to 4 µg/mL (≈ 12 µM) in [3] (setting [16]); 0.03 µg/mL (≈ 0.0897 µM) in experiment [7] (setting [17]); 0.06 µg/mL (≈ 0.179 µM) in experiment [7] (setting [18]); 0.06 µg/mL (≈ 0.179 µM) in experiment [7] (setting [19]); 2 µg/mL (≈ 5.98 µM) in [7] (setting [20]); 0.06 µg/mL (≈ 0.179 µM) in experiment [7] (setting [21]). The MIC was at most 0.008 µg/mL in [8] (S. pyogenes MMX 3068, Ery^R); at most 0.008 µg/mL in experiment [8] (setting [22]); at most 0.008 µg/mL in [8] (S. pyogenes MMX 3919, ERY^R); at most 0.008 µg/mL in experiment [8] (setting [23]); at most 0.008 µg/mL in experiment [8] (setting [24]). Also, the “MIC, CLSI QC range” value in experiment [9] was “(0.25-1) μg/mL”.
